The results in this text go back to patent publication US20120064125A1 (priority 2009, published 2012).

Holding throughout (assay type): cell-based, Staphylococcus aureus
In experiment [1] the test system is USA300 strain LAC. Conditions: 48 hr titanium biofilm, AIP ~50 nM for 24 hr, effluent cells tested with rifampicin and levofloxacin.
Method: In parallel, biomass was detached (white triangles, dashed-line error bars) from the coupons with AIP-I addition and collected from flow cell effluents. The detached biomass was treated with identical rifampicin/levofloxacin concentrations and surviving CFU's determined.
Antibiotic susceptibility. […] To determine antibiotic resistance of dispersed biofilms, AIP was added (˜50 nM) to the media reservoir after 48 hr growth, and the biofilm effluent was collected on ice for 24 hr. Cell concentration was adjusted to the equivalent of one coupon of biomass, or ˜1×10^8 CFU. Cells were treated as described above with the exception that cells were pelleted by centrifugation at 13,000 RPM and then resuspended in 1 mL PBS before sonication.
To test antibiotic susceptibility of dispersed cells, LAC biofilms were grown for 48 hr on titanium, exposed to AIP (˜50 nM) for 24 hr, and detached cells were collected from the effluent.
The test system of experiment [2] is USA300 strain LAC biofilm. Briefly: USA300 biofilm dispersal from a glass surface (flow cell, CLSM). Conditions: AIP-I ~50 nM. The method, then: FIGS. 1A-B. USA300 biofilm dispersal from a glass surface. USA300 strain LAC with plasmid pALC2084 was inoculated into a once-through flow cell with a glass substratum and incubated for two days. AIP-I (˜50 nM) was added to the flow cell media and biofilm integrity was monitored for 20 hr. For each image depiction, a z series of images was obtained with CLSM and reconstructed with Volocity software, and each side of a grid square is 20 μm in the image reconstruction. (FIG. 1A) Wild-type LAC with pALC2084. (FIG. 1B) LAC ΔAgr:Tet mutant with pALC2084.
Biofilm Assays. […] For biofilm dispersal tests, AIP type I (AIP-I) was synthesized and quantified using an intein system (Malone et al., 2007), and biofilm dispersal tests were performed as previously described (Boles and Horswill, 2008). […] LAC biofilm integrity was monitored at 6 hr and 22 hr, and COMSTAT analysis was performed to quantify the biofilm properties.
USA300 has a functional biofilm dispersal pathway. […] Biofilm integrity was monitored using confocal laser scanning microscopy (CLSM), and as anticipated, the LAC biofilm appeared as a confluent layer ˜20 μm thick (FIG. 1A). […] In scanning the glass substratum, remaining live cells could not be detected, indicating the biomass completely dispersed from the surface.

For experiment [3], the system named is USA300 strain LAC biofilm. Briefly: USA300 biofilm dispersal from a titanium surface (flow cell, CLSM). Conditions: AIP-I ~50 nM. The method, then: FIGS. 6A-B. USA300 biofilm dispersal from a titanium surface. Biofilms of LAC with plasmid pCM12 were grown for two days in the modified flow cell chamber (FIG. 2) that contains titanium as a substratum. AIP-I was added to the flow cell media at ˜50 nM final concentration, and biofilm integrity was monitored for another 20 hr. Each image depiction is a reconstruction of a z series of CLSM images, and each side of a grid square is 20 μm. (FIG. 6A) Wild-type LAC with pCM12. (FIG. 6B) LAC ΔAgr::Tet mutant with pCM12.
Biofilm Assays. For biofilms grown on glass, flow cell biofilm growth, confocal scanning laser microscopy (CSLM), and computer image analysis were performed as previously described (Boles and Horswill, 2008). To monitor biofilm growth, LAC was transformed with GFP-expressing plasmid pALC2084 (Bateman et al., 2001), and the growth medium was supplemented with 1 μg/ml Cam and 20 ng/ml anhydrotetracycline for plasmid maintenance and induction of GFP expression. […] For biofilm dispersal tests, AIP type I (AIP-I) was synthesized and quantified using an intein system (Malone et al., 2007), and biofilm dispersal tests were performed as previously described (Boles and Horswill, 2008). […] LAC biofilm integrity was monitored at 6 hr and 22 hr, and COMSTAT analysis was performed to quantify the biofilm properties. […]

[4] abbreviates: LAC ΔAgr::Tet mutant (Agr inactivated), 20 hr.

Consider “YSTCDFIM (thiolactone bridge; Synechocystis PCC6803) [AIP-I, made with an intein system]”, for which the “antibiotic susceptibility of cells after AIP-mediated dispersal” value in experiment [1] is on record as “significantly more antibiotic susceptible”. In experiment [2] (setting [4]), the “biofilm integrity after signal addition” value is “no effect on the biofilm integrity”. Besides, the “biofilm integrity (biomass) after signal addition” value in experiment [2] (wild-type LAC, 48 hr biofilm, 20 hr after addition) is “complete loss of biomass”. Besides, the “biofilm response to AIP-I” value in experiment [3] (setting [4]) is listed as “did not respond to AIP-I treatment”. In experiment [3] (wild-type LAC, two day biofilm, 20 hr post addition), the “biofilm dispersal (biomass)” value was “complete dispersal of the biomass”.
